From patent US7060293B1, “Powder-layered oral dosage forms” (Purdue Pharma, priority 1994, dated 2006)
Counter-ions that a name gives are not always drawn.

assay: not given; conditions: entries without asterisk (not marked as performed at PRC); cited from earlier work

Compound	Tapped Bulk Densities
CCN(CC)CCNC(=O)c1cc(Cl)c(N)cc1OC [Metoclopramide HCL]	0.5 g/mL
Doxycycline Metaphosphate Sodium Complex	0.49 g/mL

assay: Bulk density (poured and tapped) of drug powders and processing aid; format: physicochemical; conditions: entries with asterisk: Bulk Densities performed at PRC

Compound	Tapped Bulk Densities
Cn1c(=O)c2[nH]cnc2n(C)c1=O [Aminophylline USP, Aminophylline]	0.62 g/mL
O=C(O)Cc1ccccc1Nc1c(Cl)cccc1Cl [Diclofenac Sodium]	0.31 g/mL
O=C1O[C@H]([C@@H](O)CO)C([O-])=C1O.[Na+] [Sodium Ascorbate USP, Sodium Ascorbate]	0.66 g/mL
Cn1c(=O)c2[nH]cnc2n(C)c1=O [Theophylline Anhydrous]	0.44 g/mL
COc1cccc(C2(O)CCCCC2CN(C)C)c1 (stereo not shown) [Tramadol HCL]	0.42 g/mL

same assay, conditions: powder used in the examples

Compound	bulk density	tapped bulk density
CC(=O)Nc1ccc(O)cc1 [Acetaminophen]	about 0.42 g/ml	
CCN(CC)CCNC(=O)c1cc(Cl)c(N)cc1OC [Metoclopramide HCL]	about 0.5 g/ml	
COc1cccc(C2(O)CCCCC2CN(C)C)c1 (stereo not shown) [Tramadol HCL]	about 0.42 g/ml	
O.OC[C@H]1O[C@@H](O[C@H]2[C@H](O)[C@@H](O)[C@@H](O)O[C@@H]2CO)[C@H](O)[C@@H](O)[C@H]1O [lactose hydrous impalpable]	0.56 g/mL	about 0.64 g/ml
Codeine Sulfate [Codeine Sulfate USP Medium Crystals Fine]	about 0.6 g/ml	
